Laboratory results reported in US4563462A, “Substance AX-2, a process for producing the same and an antitumor composition containing the same” (Kyowa Hakko Kogyo Kabushiki, priority 1982, dated 1986).

Experiments:
[1] = Acute toxicity (LD50) of AX-2, single injection, 14 days observation, Behrens-Korber's method; parameters: species or system Mice (ddy strain); conditions: mouse, in vivo, male ddy mice
Source text: The acute toxicity and anti-tumour activity of AX-2 are as follows. I. Acute toxicity (LD50) of AX-2:
Mice (ddy strain; male; weight 20±2 g; each group consisting of 5 mice) were used as test animals. On each occasion, the active substance of this invention was once administered to the animal by injection (ip. or iv.).

Sarcoma 180 solid tumour = assay: Effect on Sarcoma 180 solid tumour (volume ratio T/C, iv.); type: in vivo, ddy male mouse; conditions: for T/C (tumour volume ratio): 7 days after administration; for Survials (7 days): Sarcoma 180 mice
Method: (1) Effect on Sarcoma 180 solid tumour:
(§1) On each occasion, 5×10^6 cells of Sarcoma 180 solid tumour were implanted into the abdominal cavity of a ddy male mouse. 7 days after this, the cells were collected from the ascites.The cells were washed once with a sterilized physiological solution of sodium chloride and suspended in a sterilized physiological solution of sodium chloride at a concentration of 5×10^7 cells/ml, of which 0.1 ml was implanted under the skin at the right artpit of a ddy male mouse having a weight of 20±2 g. 24 hours after this, the active substance was administered into the vein at the tail of each mouse of a group consisting of 5 mice. In order to investigate the anti-tumour activity, 7 days after administration of AX-2, the major axis (a) and minor axis (b) of the tumour were measured, from which the volume of the tumour was calculated as a X b^2 /2. The effect of AX-2 is expressed by T/C which denotes the volume ratio of T [mice administered with AX-2 ] to C (untreated group). Table 1 indicates the effect of AX-2 agsinst Sarcoma 180 solid tumour by injection (iv.).
A T/C of 0.25 was obtained from the group, to which each 15 mg/kg of AX-2 had been administered. In this table, ED50 denotes a dose capable of reducing the volume of the tumour to 50% of the corresponding volume of the control group. Such volumes were calculated by plotting a relation between the dose and T/C on a logarithmic graph which indiates T/C on the ordinate and the dose on the abscissa, and calculating the dose and anti-tumour activity as a straight line by the method of least squares. The dose corresponding to T/C of 0.5 is defined as ED50.

Peripherical leucocytes = Peripherical leucocytes count (WBC) in Sarcoma 180 bearing mice; type: in vivo, ddy male mouse; conditions: blood 4 days after tumour implantation
Method: as §1
The peripherical leucocytes count (WBC) was measured by using a micro cell counter in the following manner. Sarcoma 180 solid tumour was implanted by injection (ip.). 4 days after this, blood was collected from the eye ground, of which 20 μl was added to 9.98 ml of Cellkit-7 (a reagent commercially available from Toyo Rika K.K., Japan) to dissolve the red cells. In this solution a drop of saponin was dispersed, followed by measuring with a micro cell counter.

Melanoma B16 tumour = assay: Effects on Melanoma B16 tumour (survival, ip.); type: in vivo, C57 BL/6 male mouse
Method: (2) Effects on Melanoma B16 tumour:
Tumour cells were collected from Melanoma B16 tumour cells lined in the abdominal cavity of a C57 BL/6 male mouse and suspended in a sterilized physiological solution of sodium chloride at a concentration of 2.5×10^7 cell/ml, of which 0.2 ml was implanted into the abdominal cavity of each mouse. The anti-tumour activity was indicated by T/C % where T and C respectively indicate the average survival days of treated and untreated groups.
As apparent from this table, it was noted that by administration of AX-2 in an amount of 6 mg/kg, the T/C value was more than 277% and 1/5 of the mice were alive 60 days after the beginning of the administration. The therapeutic index [a dose showing a maximum therapeutic effect/a dose showing a T/C of 130%] was 193.

Solubility = type: physicochemical

In the case of COC1=C(C)C(=O)C2=C(C1=O)C(COC(N)=O)C1(OC)NCC3C1N23 (stereo not shown) [AX-2], the LD50 at 336 h ([1]; ip.) is reported as 7.8 mg/kg, the LD50 at 336 h ([1]; iv.) is reported as 27 mg/kg and the “T/C (tumour volume ratio)” value (Sarcoma 180 solid tumour; 1.88 mg/kg) is reported as 0.77. The “Survials (7 days)” value (Sarcoma 180 solid tumour; 1.88 mg/kg) was 4/4, the “T/C (tumour volume ratio)” value (Sarcoma 180 solid tumour; 3.75 mg/kg) was 0.64 and the “Survials (7 days)” value (Sarcoma 180 solid tumour; 3.75 mg/kg) was 4/4. The “T/C (tumour volume ratio)” value (Sarcoma 180 solid tumour; 7.5 mg/kg) was 0.42, the “Survials (7 days)” value (Sarcoma 180 solid tumour; 7.5 mg/kg) was 4/4 and the “T/C (tumour volume ratio)” value (Sarcoma 180 solid tumour; 10 mg/kg) was 0.34. For the same compound, the “Survials (7 days)” value (Sarcoma 180 solid tumour; 10 mg/kg) was 4/4, the “T/C (tumour volume ratio)” value (Sarcoma 180 solid tumour; 15 mg/kg) was 0.25 and the “Survials (7 days)” value (Sarcoma 180 solid tumour; 15 mg/kg) was 4/4. The “T/C (tumour volume ratio)” value (Sarcoma 180 solid tumour; 30 mg/kg) was 0.05, the “Survials (7 days)” value (Sarcoma 180 solid tumour; 30 mg/kg) was 3/4 and the “effect (dose dependence)” value (Sarcoma 180 solid tumour; 7.5 to 15 mg/kg) was “the effect increased according to the increased dose”. The ED50 (Sarcoma 180 solid tumour; Mus musculus, Sarcoma-180, 168 h, least squares from dose vs T/C log plot, read-out: ED50 (dose reducing tumour volume to 50% of control, T/C 0.5)) was 5.7 mg/kg, the “Peripherical leucocytes count (WBC) ± SD/mm^3” value (Peripherical leucocytes; 1.88 mg/kg) was 7730 ± 49 /mm^3 and the “Peripherical leucocytes count (WBC) ± SD/mm^3” value (Peripherical leucocytes; 3.75 mg/kg) was 6730 ± 115 /mm^3. For the same compound, the “Peripherical leucocytes count (WBC) ± SD/mm^3” value (Peripherical leucocytes; 7.5 mg/kg) was 4100 ± 55 /mm^3, the “Peripherical leucocytes count (WBC) ± SD/mm^3” value (Peripherical leucocytes; 10 mg/kg) was 2800 ± 80 /mm^3 and the “Peripherical leucocytes count (WBC) ± SD/mm^3” value (Peripherical leucocytes; 15 mg/kg) was 2950 ± 42 /mm^3. For the same compound, the “Peripherical leucocytes count (WBC) ± SD/mm^3” value (Peripherical leucocytes; 30 mg/kg) was 2300 ± 60 /mm^3, the “therapeutic index [a dose showing a maximum therapeutic effect/a dose showing a T/C of 130%]” value (Melanoma B16 tumour) was 193 and the “Average survival days (days ± SD)” value (Melanoma B16 tumour; 0.031 mg/kg) was 18.4 ± 1.5 days. For the same compound, the “Survived after 60 days after implantation” value (from here on “Survived after 60 days”) (Melanoma B16 tumour; 0.031 mg/kg) was 0/5, the “T/C (average survival days treated/untreated)” value (Melanoma B16 tumour; 0.031 mg/kg) was 144% and the “Average survival days (days ± SD)” value (Melanoma B16 tumour; 0.063 mg/kg) was 13.0 ± 1.7 days. The “Survived after 60 days” value (Melanoma B16 tumour; 0.063 mg/kg) was 0/5, the “T/C (average survival days treated/untreated)” value (Melanoma B16 tumour; 0.063 mg/kg) was 140% and the “Average survival days (days ± SD)” value (Melanoma B16 tumour; 0.125 mg/kg) was 19.4 ± 2.0 days. For the same compound, the “Survived after 60 days” value (Melanoma B16 tumour; 0.125 mg/kg) was 0/5, the “T/C (average survival days treated/untreated)” value (Melanoma B16 tumour; 0.125 mg/kg) was 152% and the “Average survival days (days ± SD)” value (Melanoma B16 tumour; 0.25 mg/kg) was 17.8 ± 1.1 days. The “Survived after 60 days” value (Melanoma B16 tumour; 0.25 mg/kg) was 0/5, the “T/C (average survival days treated/untreated)” value (Melanoma B16 tumour; 0.25 mg/kg) was 140% and the “Average survival days (days ± SD)” value (Melanoma B16 tumour; 0.5 mg/kg) was 21.0 ± 2.8 days. For the same compound, the “Survived after 60 days” value (Melanoma B16 tumour; 0.5 mg/kg) was 0/5, the “T/C (average survival days treated/untreated)” value (Melanoma B16 tumour; 0.5 mg/kg) was 164% and the “Average survival days (days ± SD)” value (Melanoma B16 tumour; 1.0 mg/kg) was 24.0 ± 3.5 days. The “Survived after 60 days” value (Melanoma B16 tumour; 1.0 mg/kg) was 0/5, the “T/C (average survival days treated/untreated)” value (Melanoma B16 tumour; 1.0 mg/kg) was 189% and the “Average survival days (days ± SD)” value (Melanoma B16 tumour; 2.0 mg/kg) was 27.4 ± 5.4 days. For the same compound, the “Survived after 60 days” value (Melanoma B16 tumour; 2.0 mg/kg) was 0/5, the “T/C (average survival days treated/untreated)” value (Melanoma B16 tumour; 2.0 mg/kg) was 214% and the “Average survival days (days ± SD)” value (Melanoma B16 tumour; 4.0 mg/kg) was 33.4 ± 9.2 days. The “Survived after 60 days” value (Melanoma B16 tumour; 4.0 mg/kg) was 0/5, the “T/C (average survival days treated/untreated)” value (Melanoma B16 tumour; 4.0 mg/kg) was 261% and the “Average survival days (days ± SD)” value (Melanoma B16 tumour; 6.0 mg/kg) was 35.4 ± 5.3 days. The “Survived after 60 days” value (Melanoma B16 tumour; 6.0 mg/kg) was 1/5, the “Average survival days (days ± SD)” value (Melanoma B16 tumour; 8.0 mg/kg) was 10.6 ± 4.2 days and the “Survived after 60 days” value (Melanoma B16 tumour; 8.0 mg/kg) was 0/5. The “T/C (average survival days treated/untreated)” value (Melanoma B16 tumour; 8.0 mg/kg) was 93%, the “Average survival days (days ± SD)” value (Melanoma B16 tumour; 12.0 mg/kg) was 4.8 ± 1.6 days and the “Survived after 60 days” value (Melanoma B16 tumour; 12.0 mg/kg) was 0/5. For the same compound, the “T/C (average survival days treated/untreated)” value (Melanoma B16 tumour; 12.0 mg/kg) was 26%, the Solubility (Solubility; ethyl acetate, chloroform, acetone, methanol and ethanol) was “Soluble” and the Solubility (Solubility; petroleum ether and n-hexane) was “Insoluble”. For the same compound, the Solubility (Solubility; water) was “Slightly soluble”.
